Results taken from ChEMBL document CHEMBL3885861, “Open TG-GATES”.

Species on record: Rattus norvegicus
Assay: Open TG-GATES - Regimen: Single
Type: toxicity, organism-based, Sprague-Dawley
Set-up: regimen Single, gender Male, age 6 weeks
Conditions: in vivo, po, 0 mg/kg, route gavage, dose level Control; for APTT / Bas / Eos / Fbg / Hb / Ht / Lym / MCH / MCHC / MCV / Mono / Neu / PT / Plat / RBC / Ret / WBC: tissue Blood; for KIDNEY_L / KIDNEY_R / KIDNEY_TOTAL: tissue Kidney; for LIVER: tissue Liver; for A/G / ALP / ALT / AST / BUN / CRE / Ca / Cl / DBIL / GLC / IP / K / LDH / Na / PL / RALB / TBIL / TC / TG / TP / gamma-GTP: tissue Plasma

## C=CCO [ALLYL ALCOHOL]
3 h
  TERMINAL_BW: 221.5 g
  APTT: 19.5 s
  Bas: 0%
  Eos: 1%
  Fbg: 226.4 mg/dL
  Hb: 13.4 g/dL
  Ht: 39.2%
  Lym: 73.8%
  MCH: 20.8 pg
  MCHC: 34.3%
  MCV: 60.8 fL
  Mono: 3%
  Neu: 21.8%
  PT: 12.2 s
  Plat: 135.4 x10_4/uL
  RBC: 645 x10_4/ul
  Ret: 6.7%
  WBC: 82.7 x10_2/uL
  KIDNEY_L: 0.9 g
  KIDNEY_R: 0.9 g
  KIDNEY_TOTAL: 1.8 g
  LIVER: 9.9 g
  A/G: 1.4
  ALP: 946 IU/L
  ALT: 41.2 IU/L
  AST: 72.2 IU/L
  BUN: 11.2 mg/dL
  CRE: 0.4 mg/dL
  Ca: 10.8 mg/dL
  Cl: 102 meq/L
  DBIL: 0.3 mg/dL
  GLC: 192.4 mg/dL
  IP: 9.1 mg/dL
  K: 3.9 meq/L
  LDH: 190.8 IU/L
  Na: 140 meq/L
  PL: 176.2 mg/dL
  RALB: 3.2 g/dL
  TBIL: 0.4 mg/dL
  TC: 83.8 mg/dL
  TG: 186.2 mg/dL
  TP: 5.6 g/dL
  gamma-GTP: 1.2 IU/L
6 h
  TERMINAL_BW: 221.2 g
  APTT: 19.3 s
  Bas: 0%
  Eos: 1%
  Fbg: 235.8 mg/dL
  Hb: 13.4 g/dL
  Ht: 38.9%
  Lym: 73.2%
  MCH: 21.4 pg
  MCHC: 34.5%
  MCV: 62.1 fL
  Mono: 4.2%
  Neu: 21.6%
  PT: 12.2 s
  Plat: 124.2 x10_4/uL
  RBC: 626.2 x10_4/ul
  Ret: 7.3%
  WBC: 115.2 x10_2/uL
  KIDNEY_L: 0.9 g
  KIDNEY_R: 1 g
  KIDNEY_TOTAL: 1.9 g
  LIVER: 9.6 g
  A/G: 1.6
  ALP: 1049.2 IU/L
  ALT: 33.2 IU/L
  AST: 62.6 IU/L
  BUN: 10 mg/dL
  CRE: 0.4 mg/dL
  Ca: 10.5 mg/dL
  Cl: 102.8 meq/L
  DBIL: 0.086 mg/dL
  GLC: 199.6 mg/dL
  IP: 8.9 mg/dL
  K: 3.8 meq/L
  LDH: 195.6 IU/L
  Na: 140.8 meq/L
  PL: 146 mg/dL
  RALB: 3.4 g/dL
  TBIL: 0.1 mg/dL
  TC: 74.8 mg/dL
  TG: 66.2 mg/dL
  TP: 5.5 g/dL
  gamma-GTP: 1 IU/L
9 h
  TERMINAL_BW: 217.9 g
  APTT: 18.7 s
  Bas: 0%
  Eos: 1%
  Fbg: 219.6 mg/dL
  Hb: 13.2 g/dL
  Ht: 38.5%
  Lym: 74.8%
  MCH: 20.7 pg
  MCHC: 34.4%
  MCV: 60.2 fL
  Mono: 3.2%
  Neu: 20.4%
  PT: 12.5 s
  Plat: 132.1 x10_4/uL
  RBC: 639.8 x10_4/ul
  Ret: 6.9%
  WBC: 99.3 x10_2/uL
  KIDNEY_L: 1 g
  KIDNEY_R: 0.9 g
  KIDNEY_TOTAL: 1.9 g
  LIVER: 9.1 g
  A/G: 1.5
  ALP: 880.4 IU/L
  ALT: 28.2 IU/L
  AST: 62.2 IU/L
  BUN: 12 mg/dL
  CRE: 0.4 mg/dL
  Ca: 10.4 mg/dL
  Cl: 101.6 meq/L
  DBIL: 0.08 mg/dL
  GLC: 208.2 mg/dL
  IP: 10.7 mg/dL
  K: 3.6 meq/L
  LDH: 158.4 IU/L
  Na: 141 meq/L
  PL: 148.4 mg/dL
  RALB: 3.3 g/dL
  TBIL: 0.1 mg/dL
  TC: 72.8 mg/dL
  TG: 81 mg/dL
  TP: 5.6 g/dL
  gamma-GTP: 1 IU/L
24 h
  TERMINAL_BW: 231.2 g
  APTT: 19.4 s
  Bas: 0%
  Eos: 1%
  Fbg: 235.8 mg/dL
  Hb: 13.1 g/dL
  Ht: 38.5%
  Lym: 78.2%
  MCH: 20.5 pg
  MCHC: 34.1%
  MCV: 60.3 fL
  Mono: 3%
  Neu: 17.2%
  PT: 12.2 s
  Plat: 140 x10_4/uL
  RBC: 640.6 x10_4/ul
  Ret: 6.2%
  WBC: 99.8 x10_2/uL
  KIDNEY_L: 0.9 g
  KIDNEY_R: 1 g
  KIDNEY_TOTAL: 1.9 g
  LIVER: 10.8 g
  A/G: 1.5
  ALP: 963.4 IU/L
  ALT: 35.8 IU/L
  AST: 63.2 IU/L
  BUN: 15.8 mg/dL
  CRE: 0.4 mg/dL
  Ca: 10.8 mg/dL
  Cl: 102 meq/L
  DBIL: 0.098 mg/dL
  GLC: 196.4 mg/dL
  IP: 7.1 mg/dL
  K: 4 meq/L
  LDH: 186.4 IU/L
  Na: 140.8 meq/L
  PL: 147.6 mg/dL
  RALB: 3.3 g/dL
  TBIL: 0.2 mg/dL
  TC: 74.2 mg/dL
  TG: 116 mg/dL
  TP: 5.6 g/dL
  gamma-GTP: 0.8 IU/L
